Test [1] concerns the target T1, human HDAC-4 (Homo sapiens, UniProt P56524).
T1 construct: Flag; made in house; host or cells: human embryonic kidney 293 cells (calcium phosphate transfection)
Nature of the test: histone deacetylase enzyme assay, HDAC-4. It counts as biochemical. As for the experimental part: Flag-tagged human HDAC-4 enzyme was produced in human embronic kidney 293 cells after transformation by the calcium phosphate precipitation method. Briefly, 293 cells were cultured in Dulbecco's Modified Eagle Medium (DMEM) containing 10% fetal bovine serum and antibiotics. Plasmid DNA encoding Flag-tagged human HDAC-4 was precipitated by ethanol and resuspend in sterile water. DNA-calcium precipitates, formed by mixing DNA, calcium choloride and 2×HEPES-buffered saline solution, were left on 293 cells for 12-16 hours. Cells were return to serum-contained DMEM medium and harvested at 48 hour post transfection for purification of Flag-tagged HDAC-4 enzyme.
(§1) The other HDAC isotypes, HDAC-3 and HDAC-4, were purified directly on an anti-Flag affinity column.
(§2) For the deacetylase assay, 20,000 cpm of an [^3H]-metabolically-labeled acetylated histone was used as a substrate. Histones were incubated with cloned recombinant human HDAC enzymes at 37° C. […] All assay conditions were pre-determined to be certain that each reaction was linear. Reactions were stopped by adding acetic acid (0.04 M final concentration) and HCl (250 mM, final concentration). The mixture was extracted with ethyl acetate, and the released [3H]-acetic acid was quantified by liquid scintillation counting. For the inhibition studies, HDAC enzyme was preincubated with test compounds for 30 minutes at 4° C. prior to the start of the enzymatic assay. IC50 values for HDAC enzyme inhibitors were identified with dose response curves for each individual compound and, thereby, obtaining a value for the concentration of inhibitor that produced fifty percent of the maximal inhibition.

In test [2] the target is T2, human HDAC-6 (Homo sapiens, UniProt Q9UBN7).
T2 construct: made in house; host or cells: insect cells (baculovirus expression system)
T2 sequence (Q9UBN7 1-1215): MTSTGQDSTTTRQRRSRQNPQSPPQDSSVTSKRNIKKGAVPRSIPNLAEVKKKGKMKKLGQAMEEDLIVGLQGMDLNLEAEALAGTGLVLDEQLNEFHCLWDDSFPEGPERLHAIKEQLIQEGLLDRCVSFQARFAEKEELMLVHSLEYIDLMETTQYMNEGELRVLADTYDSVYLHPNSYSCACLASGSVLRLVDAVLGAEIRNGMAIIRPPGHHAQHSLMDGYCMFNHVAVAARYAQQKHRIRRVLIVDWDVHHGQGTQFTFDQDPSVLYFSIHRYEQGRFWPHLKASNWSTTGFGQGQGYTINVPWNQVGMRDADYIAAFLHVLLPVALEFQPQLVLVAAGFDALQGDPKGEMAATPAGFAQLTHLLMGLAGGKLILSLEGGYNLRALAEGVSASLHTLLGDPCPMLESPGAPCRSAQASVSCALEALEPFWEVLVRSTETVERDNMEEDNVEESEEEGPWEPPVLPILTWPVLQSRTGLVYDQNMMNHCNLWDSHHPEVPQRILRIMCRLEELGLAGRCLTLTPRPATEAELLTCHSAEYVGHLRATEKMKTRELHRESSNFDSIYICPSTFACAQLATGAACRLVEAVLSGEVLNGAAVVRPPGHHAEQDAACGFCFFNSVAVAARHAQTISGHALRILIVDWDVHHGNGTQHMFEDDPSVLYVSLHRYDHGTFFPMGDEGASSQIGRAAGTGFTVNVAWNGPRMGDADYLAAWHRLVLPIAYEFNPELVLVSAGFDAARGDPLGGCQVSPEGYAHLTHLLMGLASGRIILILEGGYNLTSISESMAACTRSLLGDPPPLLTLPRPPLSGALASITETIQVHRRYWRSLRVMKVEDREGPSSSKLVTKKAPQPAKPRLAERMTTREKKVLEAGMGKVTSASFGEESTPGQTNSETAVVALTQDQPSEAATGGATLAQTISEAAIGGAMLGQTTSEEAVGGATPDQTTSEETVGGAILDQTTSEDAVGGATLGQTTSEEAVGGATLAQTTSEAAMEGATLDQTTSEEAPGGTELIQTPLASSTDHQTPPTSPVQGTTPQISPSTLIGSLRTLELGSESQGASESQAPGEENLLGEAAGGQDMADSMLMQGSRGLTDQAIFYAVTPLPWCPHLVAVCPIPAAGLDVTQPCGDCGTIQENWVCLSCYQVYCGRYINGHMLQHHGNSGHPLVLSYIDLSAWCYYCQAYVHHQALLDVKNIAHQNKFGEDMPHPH
Nature of the test: histone deacetylase enzyme assay, HDAC-6. Type of test: biochemical. The method, then: as §1, §2

Test [3] has as its target T3, human HDAC-3 (Homo sapiens, UniProt O15379).
T3 construct: made in house; host or cells: insect cells (baculovirus expression system)
The test is described as follows: histone deacetylase enzyme assay, HDAC-3. Type of test: biochemical. The method, then: as §1, §2

The target of test [4] is HDAC 2 (Homo sapiens, UniProt Q92769). The test is described as follows: histone deacetylase enzyme assay, HDAC 2. Type of test: biochemical. The method, then: as §2
Test [5] can be described thus: cell cycle arrest. Type of test: cell-based.
The subject of test [6] is acetylated histone H-4 in T24 human bladder cancer cells. The test is described as follows: inhibition of HDAC activity in whole cells (acetylated histone H-4 Western). Type of test: cell-based. The note with it: 16 hours. The method, then: T24 human bladder cancer cells (ATCC, Manassas, Va.) growing in culture were incubated with test compounds for 16 hours. Histones were extracted from the cells by standard procedures (see e.g. Yoshida et al., supra) after the culture period. Twenty μg total core histone protein was loaded onto SDS/PAGE and transferred to nitrocellulose membranes, which were then reacted with polyclonal antibody specific for acetylated histone H-4 (Upstate Biotech Inc., Lake Placid, […].). Horse Radish Peroxidase conjugated secondary antibody was used at a dilution of 1:5000 to detect primary antibody binding. The secondary antibody binding was visualized by use of the Enhanced chemiluminescence (ECL) detection kit (Amersham-Pharmacia Biotech., Inc., Piscataway, N.J.). After exposure to film, acetylated H-4 signal was quantitated by densitometry.

Test [7] has as its system human colon cancer HCT116 cells. The test is described as follows: MTT assay of cell proliferation and cytotoxicity. Type of test: cell-based. The following applies: HCT-116, 48 hours. As for the experimental part:
Four thousand five hundred (4,500) human colon cancer HCT116 cells (ATCC, Manassas, Va. were used in an MTT (3-[4,5-dimethylthiazol-2-yl]-2,5 diphenyl tetrazolium bromide) assay to quantitatively determine cell proliferation and cytotoxicity. Typically, HCT116 cells were plated into each well of the 96-well tissue culture plate and left overnight to attach to the plate. Compounds at various concentrations (1 uM, 5 uM and 25 uM, in DMSO) were added in triplicate into the culture media (final DMSO concentration 1%) and incubated for 48 hours. MTT solution (obtained from Sigma as powder) was added and incubated with the cells for 4 hours at 37° C. in incubator with 5% CO2. During the incubation, viable cells convert MTT to a water-insoluble formazan dye. Solubilizing buffer (50% N,N-dimethylformamide, 20% SDS, pH 4.7) was added to cells and incubate for overnight at 37C in incubator with 5% CO2. Solubilized dye was quantitated by colorimetric reading at […] using a reference of […].

Test [8] deals with human colon cancer cells (HCT116). The test is described as follows: tumor growth in a mouse model, colon. Type of test: in vivo, BALB/c nude mice. The note with it: 40 mg/kg body weight/day, i p; vs vehicle-treated mice. As for the experimental part:
Female BALB/c nude mice were obtained from Charles River Laboratories (Charles River, NY) and used at age 8-10 weeks. Human prostate tumor cells (DU145, 2×10^6) or human colon cancer cells (HCT116; 2×10^6) or small lung core A549 2×10^6 were injected subcutaneously in the animal's flank and allowed to form solid tumors. Tumor fragments were serially passaged a minimum of three times, then approximately 30 mg tumor fragments were implanted subcutaneously through a small surgical incision under general anaesthesia. Small molecule inhibitor administration by intraperotineal or oral administration was initiated when the tumors reached a volume of 100 mm^3. For intraperotineal administration, small molecule inhibitors of HDAC (40-50 mg/kg body weight/day) were dissolved in 100% DMSO and administered daily intraperitoneally by injection. For oral administration, small molecule inhibitors of HDAC (40-50 mg/kg body weight/days) were dissolved in a solution containing 65% polyethylene glycol 400 (PEG 400 (Sigma-Aldridge, Mississauga, Ontario, Calif., Catalogue No. P-3265), 5% ethanol, and 30% water. Tumor volumes were monitored twice weekly up to 20 days. Each experimental group contained at least 6-8 animals. Percentage inhibition was calculated using volume of tumor from vehicle-treated mice as controls.

Test [9] deals with p21. The test is described as follows: p21 induction by small molecules. It counts as cell-based.
The target in test [10] is T4, human HDAC-1 (Homo sapiens, UniProt Q13547).
T4 construct: made in house; host or cells: insect cells (baculovirus expression system)
The test is described as follows: histone deacetylase enzyme assay, HDAC-1. It counts as biochemical. The method, then:
as §1, §2

T1 sequence (P56524 whole entry): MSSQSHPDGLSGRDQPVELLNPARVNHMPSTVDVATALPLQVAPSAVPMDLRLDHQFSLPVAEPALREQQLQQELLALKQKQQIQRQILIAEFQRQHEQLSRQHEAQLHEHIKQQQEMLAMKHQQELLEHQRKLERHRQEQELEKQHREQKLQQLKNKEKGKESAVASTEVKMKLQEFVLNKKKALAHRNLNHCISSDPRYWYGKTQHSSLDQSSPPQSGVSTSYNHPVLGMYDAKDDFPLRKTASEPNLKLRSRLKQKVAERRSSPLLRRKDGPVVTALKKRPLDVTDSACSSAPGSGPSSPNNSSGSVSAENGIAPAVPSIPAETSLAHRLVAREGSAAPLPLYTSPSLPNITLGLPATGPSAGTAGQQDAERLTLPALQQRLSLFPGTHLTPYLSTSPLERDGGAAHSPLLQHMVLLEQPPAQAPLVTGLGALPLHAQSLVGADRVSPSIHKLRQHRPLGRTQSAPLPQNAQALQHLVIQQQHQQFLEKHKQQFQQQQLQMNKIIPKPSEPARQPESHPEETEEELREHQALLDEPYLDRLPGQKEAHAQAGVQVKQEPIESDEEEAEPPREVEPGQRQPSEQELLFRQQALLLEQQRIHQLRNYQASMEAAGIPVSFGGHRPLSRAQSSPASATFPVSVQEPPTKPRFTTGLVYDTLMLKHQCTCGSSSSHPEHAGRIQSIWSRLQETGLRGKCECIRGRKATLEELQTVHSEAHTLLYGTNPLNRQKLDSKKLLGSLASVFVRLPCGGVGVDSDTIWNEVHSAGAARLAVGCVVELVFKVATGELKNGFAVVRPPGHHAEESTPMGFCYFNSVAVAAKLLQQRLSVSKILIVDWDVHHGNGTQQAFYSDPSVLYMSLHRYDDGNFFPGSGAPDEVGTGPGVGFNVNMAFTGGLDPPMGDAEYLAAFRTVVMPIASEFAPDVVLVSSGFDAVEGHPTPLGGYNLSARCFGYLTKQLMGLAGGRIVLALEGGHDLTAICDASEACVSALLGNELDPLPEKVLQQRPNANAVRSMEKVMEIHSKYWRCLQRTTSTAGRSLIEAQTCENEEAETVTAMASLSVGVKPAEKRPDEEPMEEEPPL
T3 sequence (O15379 whole entry): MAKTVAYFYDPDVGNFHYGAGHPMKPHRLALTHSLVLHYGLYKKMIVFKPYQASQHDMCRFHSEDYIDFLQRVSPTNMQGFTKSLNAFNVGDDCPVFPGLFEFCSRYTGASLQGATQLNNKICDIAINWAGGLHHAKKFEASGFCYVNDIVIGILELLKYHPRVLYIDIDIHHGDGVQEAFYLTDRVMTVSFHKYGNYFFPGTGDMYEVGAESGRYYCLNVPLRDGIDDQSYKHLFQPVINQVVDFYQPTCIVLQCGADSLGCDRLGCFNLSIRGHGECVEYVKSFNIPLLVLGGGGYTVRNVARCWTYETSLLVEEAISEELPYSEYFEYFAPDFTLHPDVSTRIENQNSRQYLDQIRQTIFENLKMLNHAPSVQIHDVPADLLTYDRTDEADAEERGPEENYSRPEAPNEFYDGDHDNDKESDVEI
HDAC 2, sequence (Q92769 whole entry): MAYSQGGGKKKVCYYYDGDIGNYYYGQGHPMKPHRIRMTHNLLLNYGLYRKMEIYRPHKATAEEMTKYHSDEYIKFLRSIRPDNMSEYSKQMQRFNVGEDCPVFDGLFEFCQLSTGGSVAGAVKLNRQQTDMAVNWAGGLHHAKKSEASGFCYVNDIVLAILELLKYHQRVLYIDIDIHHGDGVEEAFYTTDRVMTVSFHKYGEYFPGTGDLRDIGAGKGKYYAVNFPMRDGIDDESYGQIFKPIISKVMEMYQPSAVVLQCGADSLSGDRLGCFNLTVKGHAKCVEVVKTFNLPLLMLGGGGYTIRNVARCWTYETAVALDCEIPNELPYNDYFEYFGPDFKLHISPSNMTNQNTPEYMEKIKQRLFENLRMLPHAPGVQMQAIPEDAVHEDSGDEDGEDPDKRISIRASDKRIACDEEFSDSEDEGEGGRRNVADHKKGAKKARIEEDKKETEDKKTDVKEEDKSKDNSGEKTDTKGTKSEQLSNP
T4 sequence (Q13547 whole entry): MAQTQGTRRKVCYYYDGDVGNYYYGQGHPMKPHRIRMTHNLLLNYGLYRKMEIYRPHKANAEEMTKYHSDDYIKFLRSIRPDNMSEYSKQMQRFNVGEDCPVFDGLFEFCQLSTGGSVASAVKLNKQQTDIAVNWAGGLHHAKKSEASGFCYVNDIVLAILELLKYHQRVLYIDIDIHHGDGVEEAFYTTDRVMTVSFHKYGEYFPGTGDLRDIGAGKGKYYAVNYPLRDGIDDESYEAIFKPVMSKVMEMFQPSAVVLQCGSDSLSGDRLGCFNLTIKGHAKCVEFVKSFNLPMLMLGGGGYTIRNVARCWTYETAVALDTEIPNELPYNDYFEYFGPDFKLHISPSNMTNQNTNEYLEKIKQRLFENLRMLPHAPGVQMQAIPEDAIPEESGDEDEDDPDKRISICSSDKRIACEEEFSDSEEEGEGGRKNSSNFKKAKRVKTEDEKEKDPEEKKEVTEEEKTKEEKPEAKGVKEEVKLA

On to `Nc1ccccc1NC(=O)CCCCCCC(=O)c1ccc(-c2ccccc2)cc1` [MG 365 0], for which the half-inhibitory concentration (IC50) in test [1] is 23 µM; in test [2], > 50 µM; in test [3] it was > 20 µM; in [4], 4 µM; in test [7], 5 µM. Moreover, the “cell cycle arrest EC” value in test [5] came to 9 µM. Moreover, the “effective concentration for histone H4 acetylation” value (shortened to “effective concentration”) in test [6] worked out at 10 µM. The “% inh. of tumor formation in vivo, colon” value in test [8] is given as 53 (40, i p) %. Besides, the p21 induction in [9] turned out to be 10 µM.

Consider `CC(/C=C/C(=O)Nc1ccccc1N)=C\C(C)C(=O)c1ccc(N(C)C)cc1` (stereo not drawn) [MG 242 9], for which the IC50 was 23 µM in test [1]; > 50 µM in [2]; 21 µM in [3]; 25 µM in test [4]; 1 µM in test [7]; 3 µM in [10]. Besides, in test [5], the “cell cycle arrest EC” value turned out to be 2 µM. For the same compound, in test [6], the “effective concentration” value came out at 1 µM. The compound also yielded a p21 induction in test [9] of 3 µM.

Take `Cc1ccc(S(=O)(=O)Nc2ccc(/C=C/C(=O)Nc3ccccc3N)cc2)cc1` [MG 376 3]: the IC50 in [1] was 28 µM; in test [2], > 50 µM; in test [3], 45 µM; in test [7], 4 µM; in test [10], 3 µM. In [5], the “cell cycle arrest EC” value was determined as 2 µM. Moreover, in test [6], the “effective concentration” value came to 5 µM. Moreover, the “% inh. of tumor formation in vivo, colon” value in test [8] is recorded as 55 (40, i p) %. Moreover, in [9], the p21 induction was 2 µM.

As usually defined, the IC50 is the concentration needed to halve the response being measured. A low value points to higher potency.

(Values after patent publication US20030148970A1, “Methods for specifically inhibiting histone deacetylase-4” (priority 2001, published 2003).)
